According to US10710978B2, “STK4 inhibitors for treatment of hematologic malignancies” (Dana-Farber Cancer Institute, Inc., priority 2015, dated 2020):
Where two headings read alike, the source gives them in different places.

Tests used:
Test in all cases: KiNativ assay
Type in all cases: binding
Settings in all cases: H929 live cell
CDK2 = CDK2 (Homo sapiens (Human), UniProt P24941)
Procedure: (§1) Biochemical IC50s of the compounds of the present disclosure against various kinases were measured in a KiNativ assay. Compounds were screened in duplicate at 10 μM in H929 live cell. IC50 was measured via Mass spectroscopy (MS).

PKN1 = PKN1 (Homo sapiens (Human), UniProt Q16512)
Procedure: as §1

STLK3 = STLK3 (Homo sapiens (Human), UniProt Q9UEW8)
Procedure: as §1

eEF2K = eEF2K (Homo sapiens (Human), UniProt O00418)
Procedure: as §1

SRPK1 = SRPK1 (Homo sapiens (Human), UniProt Q96SB4)
Procedure: as §1

MAP2K3 = MAP2K3 (Homo sapiens (Human), UniProt P46734)
Procedure: as §1

MST1, MST2 = tested on: MST1, MST2
Procedure: as §1

PITSLRE = tested on: PITSLRE
Procedure: as §1

RSK1 domain2 = RSK1 domain2 (Homo sapiens (Human), UniProt Q15418)
Procedure: as §1

[1] = tested on: ZC1/HGK, ZC2/TNIK, ZC3/MINK
Procedure: as §1

LKB1 = LKB1 (Homo sapiens (Human), UniProt Q15831)
Procedure: as §1

MST1 = MST1 (Homo sapiens (Human), UniProt Q13043)
Procedure: as §1

CDK7 = CDK7 (Homo sapiens (Human), UniProt P50613)
Procedure: as §1

NDR1 = NDR1 (Homo sapiens (Human), UniProt Q15208)
Procedure: as §1

MARK2 = MARK2 (Homo sapiens (Human), UniProt Q7KZI7)
Procedure: as §1

CaMK2g = CaMK2g (Homo sapiens (Human), UniProt Q13555)
Procedure: as §1

PKD3 = PKD3 (Homo sapiens (Human), UniProt O94806)
Procedure: as §1

MAP3K5 = MAP3K5 (Homo sapiens (Human), UniProt Q99683)
Procedure: as §1

RSK2 domain2 = RSK2 domain2 (Homo sapiens (Human), UniProt P51812)
Procedure: as §1

CDK11, CDK8 = tested on: CDK11, CDK8
Procedure: as §1

ACK = ACK (Homo sapiens (Human), UniProt Q07912)
Procedure: as §1

ILK = ILK (Homo sapiens (Human), UniProt Q13418)
Procedure: as §1

CSK = CSK (Homo sapiens (Human), UniProt P41240)
Procedure: as §1

DGKH = DGKH (Homo sapiens (Human), UniProt Q86XP1)
Procedure: as §1

CaMK2d = CaMK2d (Homo sapiens (Human), UniProt Q13557)
Procedure: as §1

MLK3 = MLK3 (Homo sapiens (Human), UniProt Q16584)
Procedure: as §1

PRPK = PRPK (Homo sapiens (Human), UniProt Q96S44)
Procedure: as §1

MST4 = tested on: MST4
Procedure: as §1

MST4, YSK1 = tested on: MST4, YSK1
Procedure: as §1

PKCz = PKCz (Homo sapiens (Human), UniProt Q05513)
Procedure: as §1

PIP4K2C = PIP4K2C (Homo sapiens (Human), UniProt Q8TBX8)
Procedure: as §1

PAN3 = PAN3 (Homo sapiens (Human), UniProt Q58A45)
Procedure: as §1

JAK1 domain2 = JAK1 domain2 (Homo sapiens (Human), UniProt P23458)
Procedure: as §1

LOK = LOK (Homo sapiens (Human), UniProt O94804)
Procedure: as §1

[2] = range class, read-out: % inhibition

PKN1, sequence (Q16512 whole entry): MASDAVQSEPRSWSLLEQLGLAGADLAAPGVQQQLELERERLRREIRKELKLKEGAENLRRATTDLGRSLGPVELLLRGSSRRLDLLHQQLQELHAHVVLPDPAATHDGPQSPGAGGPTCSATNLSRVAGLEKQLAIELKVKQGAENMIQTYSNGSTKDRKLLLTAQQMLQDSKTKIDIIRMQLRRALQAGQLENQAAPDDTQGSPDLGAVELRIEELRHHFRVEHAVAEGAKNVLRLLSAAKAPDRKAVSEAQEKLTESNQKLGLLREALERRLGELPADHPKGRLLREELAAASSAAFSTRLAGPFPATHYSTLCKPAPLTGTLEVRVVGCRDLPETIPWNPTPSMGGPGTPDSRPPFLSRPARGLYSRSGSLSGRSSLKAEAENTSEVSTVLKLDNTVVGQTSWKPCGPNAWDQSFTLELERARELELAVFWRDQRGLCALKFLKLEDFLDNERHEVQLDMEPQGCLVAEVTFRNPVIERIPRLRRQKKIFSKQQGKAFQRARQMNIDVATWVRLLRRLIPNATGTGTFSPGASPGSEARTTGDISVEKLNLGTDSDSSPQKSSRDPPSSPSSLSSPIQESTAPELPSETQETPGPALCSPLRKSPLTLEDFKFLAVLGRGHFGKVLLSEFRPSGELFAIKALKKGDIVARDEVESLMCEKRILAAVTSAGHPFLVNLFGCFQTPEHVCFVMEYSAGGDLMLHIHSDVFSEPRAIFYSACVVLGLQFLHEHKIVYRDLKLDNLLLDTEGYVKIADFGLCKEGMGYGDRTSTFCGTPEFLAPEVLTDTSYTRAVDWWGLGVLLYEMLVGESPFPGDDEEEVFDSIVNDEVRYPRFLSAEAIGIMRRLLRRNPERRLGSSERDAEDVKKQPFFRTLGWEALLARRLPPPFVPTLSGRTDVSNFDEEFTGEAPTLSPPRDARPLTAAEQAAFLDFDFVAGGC
MAP3K5, sequence (Q99683 whole entry): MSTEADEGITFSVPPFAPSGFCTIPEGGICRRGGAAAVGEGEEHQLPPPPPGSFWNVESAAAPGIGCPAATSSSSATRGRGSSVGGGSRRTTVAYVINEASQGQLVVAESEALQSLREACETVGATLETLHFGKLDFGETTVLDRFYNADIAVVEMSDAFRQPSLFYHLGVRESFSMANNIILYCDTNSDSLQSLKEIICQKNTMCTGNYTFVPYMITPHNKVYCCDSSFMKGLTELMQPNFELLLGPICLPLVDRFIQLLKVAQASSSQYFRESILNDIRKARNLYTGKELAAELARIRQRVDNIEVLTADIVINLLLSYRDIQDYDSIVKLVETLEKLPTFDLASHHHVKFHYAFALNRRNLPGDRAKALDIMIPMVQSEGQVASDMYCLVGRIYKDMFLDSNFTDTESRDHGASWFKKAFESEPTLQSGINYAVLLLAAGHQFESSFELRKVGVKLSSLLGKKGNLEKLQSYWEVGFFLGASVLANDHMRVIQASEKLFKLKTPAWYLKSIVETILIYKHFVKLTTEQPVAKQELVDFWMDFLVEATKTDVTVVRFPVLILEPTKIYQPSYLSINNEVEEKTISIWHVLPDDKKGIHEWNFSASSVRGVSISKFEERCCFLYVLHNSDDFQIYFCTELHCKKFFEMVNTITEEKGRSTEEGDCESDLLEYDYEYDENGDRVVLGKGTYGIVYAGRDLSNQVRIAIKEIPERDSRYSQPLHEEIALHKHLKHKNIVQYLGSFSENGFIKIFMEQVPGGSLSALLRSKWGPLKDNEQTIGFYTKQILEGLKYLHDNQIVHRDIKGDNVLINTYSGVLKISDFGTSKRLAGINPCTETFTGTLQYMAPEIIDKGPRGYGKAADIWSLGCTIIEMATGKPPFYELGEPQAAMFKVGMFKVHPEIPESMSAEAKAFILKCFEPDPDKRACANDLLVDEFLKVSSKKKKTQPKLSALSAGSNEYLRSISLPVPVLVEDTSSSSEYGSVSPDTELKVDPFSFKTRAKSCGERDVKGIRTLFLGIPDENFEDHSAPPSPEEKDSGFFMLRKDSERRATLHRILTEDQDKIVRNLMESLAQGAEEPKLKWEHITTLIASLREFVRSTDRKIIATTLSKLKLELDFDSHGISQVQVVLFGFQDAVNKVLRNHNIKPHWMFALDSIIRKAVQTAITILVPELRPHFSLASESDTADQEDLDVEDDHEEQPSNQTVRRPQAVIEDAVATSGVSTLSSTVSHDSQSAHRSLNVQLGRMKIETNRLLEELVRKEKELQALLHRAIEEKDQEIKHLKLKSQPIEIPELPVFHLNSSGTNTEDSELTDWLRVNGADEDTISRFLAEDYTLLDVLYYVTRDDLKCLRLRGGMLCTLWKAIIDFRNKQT
SRPK1, sequence (Q96SB4 whole entry): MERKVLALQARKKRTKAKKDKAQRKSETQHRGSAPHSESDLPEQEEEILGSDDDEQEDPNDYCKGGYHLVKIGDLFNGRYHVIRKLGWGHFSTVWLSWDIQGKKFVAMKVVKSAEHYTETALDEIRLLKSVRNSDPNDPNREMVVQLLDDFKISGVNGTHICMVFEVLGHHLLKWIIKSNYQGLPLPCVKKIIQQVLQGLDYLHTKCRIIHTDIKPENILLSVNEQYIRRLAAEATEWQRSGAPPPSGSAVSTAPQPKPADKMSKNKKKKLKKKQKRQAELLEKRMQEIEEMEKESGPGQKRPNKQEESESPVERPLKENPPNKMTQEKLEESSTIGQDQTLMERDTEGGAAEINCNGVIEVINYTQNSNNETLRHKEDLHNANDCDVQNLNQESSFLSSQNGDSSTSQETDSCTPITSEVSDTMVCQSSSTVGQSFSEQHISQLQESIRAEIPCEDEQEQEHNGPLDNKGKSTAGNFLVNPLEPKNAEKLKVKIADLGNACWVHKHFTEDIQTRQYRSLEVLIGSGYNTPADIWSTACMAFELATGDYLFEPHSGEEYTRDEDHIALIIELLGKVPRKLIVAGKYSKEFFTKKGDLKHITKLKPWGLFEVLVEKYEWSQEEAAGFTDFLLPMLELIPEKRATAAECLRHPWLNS
ACK, sequence (Q07912 whole entry): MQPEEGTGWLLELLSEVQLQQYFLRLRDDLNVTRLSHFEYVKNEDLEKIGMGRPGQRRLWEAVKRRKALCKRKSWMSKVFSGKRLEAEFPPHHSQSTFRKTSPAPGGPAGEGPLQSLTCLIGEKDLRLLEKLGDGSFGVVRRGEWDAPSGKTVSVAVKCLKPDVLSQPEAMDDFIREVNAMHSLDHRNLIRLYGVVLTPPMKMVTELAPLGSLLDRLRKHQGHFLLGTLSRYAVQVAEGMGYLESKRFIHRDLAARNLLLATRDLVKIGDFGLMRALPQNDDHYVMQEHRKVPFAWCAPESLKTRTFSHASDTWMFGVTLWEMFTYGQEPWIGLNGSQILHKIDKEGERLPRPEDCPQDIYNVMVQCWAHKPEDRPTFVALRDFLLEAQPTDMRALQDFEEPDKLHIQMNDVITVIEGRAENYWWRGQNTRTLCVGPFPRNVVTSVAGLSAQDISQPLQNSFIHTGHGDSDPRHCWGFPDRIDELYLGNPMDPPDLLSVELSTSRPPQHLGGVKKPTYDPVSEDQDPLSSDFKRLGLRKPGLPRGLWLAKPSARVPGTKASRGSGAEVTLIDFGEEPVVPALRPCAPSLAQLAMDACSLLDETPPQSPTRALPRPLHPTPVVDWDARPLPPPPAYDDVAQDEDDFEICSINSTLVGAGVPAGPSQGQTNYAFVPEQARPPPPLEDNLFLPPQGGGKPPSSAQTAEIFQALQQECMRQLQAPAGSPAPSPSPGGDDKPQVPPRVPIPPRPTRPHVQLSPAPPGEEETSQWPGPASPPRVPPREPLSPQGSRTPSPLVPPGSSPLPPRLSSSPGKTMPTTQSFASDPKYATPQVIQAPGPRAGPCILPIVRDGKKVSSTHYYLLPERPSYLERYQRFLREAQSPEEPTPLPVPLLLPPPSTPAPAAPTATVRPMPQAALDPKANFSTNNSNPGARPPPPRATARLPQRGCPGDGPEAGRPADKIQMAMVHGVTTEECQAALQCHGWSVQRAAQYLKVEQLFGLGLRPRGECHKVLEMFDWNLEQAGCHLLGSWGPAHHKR
PIP4K2C, sequence (Q8TBX8 whole entry): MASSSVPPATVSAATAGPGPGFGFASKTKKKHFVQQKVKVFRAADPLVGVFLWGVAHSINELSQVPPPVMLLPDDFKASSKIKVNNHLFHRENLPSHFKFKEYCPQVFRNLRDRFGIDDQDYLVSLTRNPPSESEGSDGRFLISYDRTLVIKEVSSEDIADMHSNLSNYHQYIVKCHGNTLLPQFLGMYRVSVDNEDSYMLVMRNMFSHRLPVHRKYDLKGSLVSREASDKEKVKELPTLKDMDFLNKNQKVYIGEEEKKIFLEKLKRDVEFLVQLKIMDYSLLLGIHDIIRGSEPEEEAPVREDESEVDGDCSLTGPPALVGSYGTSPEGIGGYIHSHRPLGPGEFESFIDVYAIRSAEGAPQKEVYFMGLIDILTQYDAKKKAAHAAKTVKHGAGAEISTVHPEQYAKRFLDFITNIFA
LKB1, sequence (Q15831 whole entry): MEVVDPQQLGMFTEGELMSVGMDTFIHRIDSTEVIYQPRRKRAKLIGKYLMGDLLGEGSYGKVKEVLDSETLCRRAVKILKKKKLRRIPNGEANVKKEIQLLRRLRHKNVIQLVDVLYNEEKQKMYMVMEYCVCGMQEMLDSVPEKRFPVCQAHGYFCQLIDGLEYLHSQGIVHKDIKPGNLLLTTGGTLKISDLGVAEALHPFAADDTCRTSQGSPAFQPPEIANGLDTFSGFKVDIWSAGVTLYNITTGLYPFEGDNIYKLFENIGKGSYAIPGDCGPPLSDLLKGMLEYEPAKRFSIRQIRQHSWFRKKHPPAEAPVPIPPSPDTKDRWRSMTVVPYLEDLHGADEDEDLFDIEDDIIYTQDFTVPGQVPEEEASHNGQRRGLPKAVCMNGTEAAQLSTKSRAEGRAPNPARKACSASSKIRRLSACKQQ

COc1cc(NS(=O)(=O)C2CC2)ccc1-c1cnc(N)c(-c2ccc3c(c2)CCNC3=O)c1 [Compound I-50, N-(4-(6-amino-5-(1-oxo-1,2,3,4-tetrahydroisoquinolin-6-yl)pyridin-3-yl)-3-methoxyphenyl) cyclopropanesulfonamide]
inhibition at 10 µM (CDK2; [2]): 0%
inhibition at 10 µM (CDK2; read-out: inhibition (10 μM)): 17.3%
inhibition at 10 µM (PKN1; [2]): 0%
inhibition at 10 µM (PKN1; read-out: inhibition (10 μM)): -39.9%
inhibition at 10 µM (STLK3; [2]): 0%
inhibition at 10 µM (STLK3; read-out: inhibition (10 μM)): -12.3%
inhibition at 10 µM (eEF2K; [2]): 0%
inhibition at 10 µM (eEF2K; read-out: inhibition (10 μM)): -1%
inhibition at 10 µM (SRPK1; [2]): 0%
inhibition at 10 µM (SRPK1; read-out: inhibition (10 μM)): -9.2%
inhibition at 10 µM (MAP2K3; [2]): 0%
inhibition at 10 µM (MAP2K3; read-out: inhibition (10 μM)): -5.7%
% inhibition (MST1, MST2; 10 μM, range class): >90%
inhibition (10 μM) (MST1, MST2): 98.7%
% inhibition (PITSLRE; 10 μM, range class): 0.0%
inhibition (10 μM) (PITSLRE): −27.6%
inhibition at 10 µM (RSK1 domain2; [2]): 0%
inhibition at 10 µM (RSK1 domain2; read-out: inhibition (10 μM)): 1%
% inhibition ([1]; 10 μM, range class): >90%
inhibition (10 μM) [1]: 96.3%
inhibition at 10 µM (LKB1; [2]): 0%
inhibition at 10 µM (LKB1; read-out: inhibition (10 μM)): -1.1%
inhibition at 10 µM (MST1; [2]): > 90%
inhibition at 10 µM (MST1; read-out: inhibition (10 μM)): 97.5%
inhibition at 10 µM (CDK7; [2]): 0%
inhibition at 10 µM (CDK7; read-out: inhibition (10 μM)): 19.4%
inhibition at 10 µM (NDR1; [2]): 0%
inhibition at 10 µM (NDR1; read-out: inhibition (10 μM)): 20.2%
inhibition at 10 µM (MARK2; [2]): 0%
inhibition at 10 µM (MARK2; read-out: inhibition (10 μM)): -8.6%
inhibition at 10 µM (CaMK2g; [2]): 0%
inhibition at 10 µM (CaMK2g; read-out: inhibition (10 μM)): 15.6%
inhibition at 10 µM (PKD3; [2]): 50 to 75%
inhibition at 10 µM (PKD3; read-out: inhibition (10 μM)): 69.7%
inhibition at 10 µM (MAP3K5; [2]): 0%
inhibition at 10 µM (MAP3K5; read-out: inhibition (10 μM)): 27.5%
inhibition at 10 µM (RSK2 domain2; [2]): 0%
inhibition at 10 µM (RSK2 domain2; read-out: inhibition (10 μM)): -1.4%
% inhibition (CDK11, CDK8; 10 μM, range class): 35-40%
inhibition (10 μM) (CDK11, CDK8): 38.1%
inhibition at 10 µM (ACK; [2]): 0%
inhibition at 10 µM (ACK; read-out: inhibition (10 μM)): 11.3%
inhibition at 10 µM (ILK; [2]): 0%
inhibition at 10 µM (ILK; read-out: inhibition (10 μM)): -18.8%
inhibition at 10 µM (CSK; [2]): 0%
inhibition at 10 µM (CSK; read-out: inhibition (10 μM)): -4.3%
inhibition at 10 µM (DGKH; [2]): 0%
inhibition at 10 µM (DGKH; read-out: inhibition (10 μM)): 6.3%
inhibition at 10 µM (CaMK2d; [2]): 0%
inhibition at 10 µM (CaMK2d; read-out: inhibition (10 μM)): 15.9%
inhibition at 10 µM (MLK3; [2]): 35 to 40%
inhibition at 10 µM (MLK3; read-out: inhibition (10 μM)): 40.9%
inhibition at 10 µM (PRPK; [2]): 0%
inhibition at 10 µM (PRPK; read-out: inhibition (10 μM)): -23.6%
% inhibition (MST4; 10 μM, range class): 0.0%
inhibition (10 μM) (MST4): −68.1%
% inhibition (MST4, YSK1; 10 μM, range class): 35-40%
inhibition (10 μM) (MST4, YSK1): 35.4%
inhibition at 10 µM (PKCz; [2]): 0%
inhibition at 10 µM (PKCz; read-out: inhibition (10 μM)): -1.7%
inhibition at 10 µM (PIP4K2C; [2]): > 90%
inhibition at 10 µM (PIP4K2C; read-out: inhibition (10 μM)): 90.6%
inhibition at 10 µM (PAN3; [2]): 0%
inhibition at 10 µM (PAN3; read-out: inhibition (10 μM)): 14.3%
inhibition at 10 µM (JAK1 domain2; [2]): 0%
inhibition at 10 µM (JAK1 domain2; read-out: inhibition (10 μM)): -23.3%
inhibition at 10 µM (LOK; [2]): > 90%
inhibition at 10 µM (LOK; read-out: inhibition (10 μM)): 91.6%
